The values that follow come from patent publication US20230240296A1, “SEED TREATMENT FOR SAFENING WHEAT TO CHLOROACETAMIDE HERBICIDES” (THE BOARD OF TRUSTEES OF THE UNIVERSITY OF ARKANSAS, priority 2022, published 2023).

This assay deals with wheat cultivar 'Smiths Gold'. As to the kind of experiment: Field trial: fenclorim seed treatment safening wheat against preemergence S-metolachlor (crop injury). In kind it is in vivo. Here is the method: Thus, in some embodiments, the methods of the present invention reduce herbicide-induced crop injury. The reduction in crop injury, due to a particular herbicide, provided by a particular safener can be determined by visually assessing crop injury in a plot of wheat treated with both the herbicide and the safener and comparing it to the crop injury observed in a control plot that was treated with the herbicide alone. Crop injury may be assessed by assigning the treated plot a rating on a scale of 0 to 100, wherein 0 indicates no crop injury and 100 indicates complete crop destruction. This score may be assigned, for example, by comparing the crop groundcover (i.e., green pixels) in the treated plot to that of the control plot using photographs.
Group 15 herbicides are promising candidates for controlling ryegrass in wheat. However, these herbicides are not currently registered for use in this crop. Thus, a field trial was conducted in Fayetteville, Ark. in fall of 2021 to test the ability of the safener fenclorim to protect wheat against the Group 15 herbicide S-metolachlor.
Seed from the conventional wheat cultivar ‘Smiths Gold’ was treated with various rates of the safener fenclorim (0, 0.5, and 2.0 g/kg seed). […] Crop injury and control of ryegrass were evaluated at two and three weeks after crop emergence. […]

As to `Clc1cc(Cl)nc(-c2ccccc2)n1` [fenclorim, 4,6-dichloro-2-phenyl-pyrimidine], the “safening against S-metolachlor (percentage of injury to wheat)” value (fenclorim seed treatment 0.5 and 2.0 g/kg seed, S-metolachlor 750 and 1120 g ai/ha preemergence, two and three weeks after crop emergence, field, Fayetteville, Ark.) is listed as “significant safening was achieved”. In addition, for the setting “fenclorim seed treatment 0.5 or 2.0 g/kg seed, S-metolachlor 750 g ai/ha preemergent, two weeks after crop emergence”, the “safening shown in plot photos of wheat plants” value was “safening provided”.
